Data published in patent US20220030867A1 (priority 2018, published 2022).

Key:
[1] = tested on: Magnaporthe grisea (Pyricularia oryzae); assay: microbe, parasite or virus in culture; type: cell-based; conditions: read-out: control of Magnaporthe grisea
[2] = tested on: Magnaporthe grisea (Pyricularia oryzae); assay: whole plant or invertebrate; type: in vivo, Magnaporthe grisea on rice leaf segments cv. Ballila; conditions: foliar, read-out: control of Magnaporthe grisea
Fusarium culmorum = assay: whole plant or invertebrate; type: in vivo, Fusarium culmorum on wheat spikelets cv. Monsun; conditions: in Triticum aestivum, read-out: control of Fusarium culmorum

Row | Structure (SMILES) | inhibition of growth at 200 ppm [1] | melting point | pest or weed control at 200 ppm [2] | pest or weed control at 200 ppm (Fusarium culmorum)
1 | C=C(C)CC(Cc1ccccc1)C(=O)Nc1cnc2c(F)cccc2c1 (stereo not shown) [Compound E-94, 2-benzyl-N-(8-fluoro-3-quinolyl)-4-methyl-pent-4-enamide] | ≥ 80% | 170 to 172 °C |  | 
2 | CC(C)CC(C)(Cc1ccccc1)C(=O)Nc1cnc2ccccc2c1 (stereo not shown) [Compound E-85, 2-benzyl-2,4-dimethyl-N-(3-quinolyl)pentanamide] | ≥ 80% | 147 to 148 °C |  | 
3 | CC#CCC(Cc1ccccc1)C(=O)Nc1cnc2c(F)cccc2c1 (stereo not shown) [Compound E-29, 2-benzyl-N-(8-fluoro-3-quinolyl)hex-4-ynamide] |  | 218 to 220 °C | ≥ 80% | 
4 | CC(Cc1ccccc1)(CC1CC1)C(=O)Nc1cnc2c(F)cccc2c1 (stereo not shown) [Compound E-76, 2-benzyl-3-cyclopropyl-N-(8-fluoro-3-quinolyl)-2-methyl-propanamide] |  | 157 to 159 °C | ≥ 80% | 
5 | Cc1c(NC(=O)C(C)(Cc2ccccc2)CC(F)(F)F)cnc2c(F)cccc12 (stereo not shown) [Compound E-50, 2-benzyl-4,4,4-trifluoro-N-(8-fluoro-4-methyl-3-quinolyl)-2-methyl-butanamide] |  | 106 to 109 °C | ≥ 80% | ≥ 80%
6 | CC(Cc1ccc(F)cc1)(CC(F)(F)F)C(=O)Nc1cnc2c(F)cccc2c1 (stereo not shown) [Compound E-18, 4,4,4-trifluoro-2-[(4-fluorophenyl)methyl]-N-(8-fluoro-3-quinolyl)-2-methyl-butanamide] |  |  | ≥ 80% | 
7 | Cc1nc2c(F)cccc2cc1NC(=O)[C@](C)(Cc1ccccc1)CC(F)(F)F [Compound F-11, (2R)-2-benzyl-4,4,4-trifluoro-N-(8-fluoro-2-methyl-3-quinolyl)-2-methyl-butanamide] |  |  | ≥ 80% | ≥ 80%
8 | C#CCC(C)(Cc1ccccc1)C(=O)Nc1cnc2c(F)cccc2c1C (stereo not shown) [Compound E-3, 2-benzyl-N-(8-fluoro-4-methyl-3-quinolyl)-2-methyl-pent-4-ynamide] | ≥ 80% |  |  | 
9 | CCCCC(C)(Cc1ccccc1)C(=O)Nc1cnc2c(F)cccc2c1 (stereo not shown) [Compound E-27, 2-benzyl-N-(8-fluoro-3-quinolyl)-2-methyl-hexanamide] |  | 135 to 137 °C | ≥ 80% | 
10 | C=C(C)C[C@](C)(Cc1ccccc1)C(=O)Nc1cnc2c(F)cccc2c1 [Compound F-22, (2R)-2-benzyl-N-(8-fluoro-3-quinolyl)-2,4-dimethyl-pent-4-enamide] | ≥ 80% |  |  | 
11 | C=C(C)C[C@@](C)(Cc1ccccc1)C(=O)Nc1cc2cccc(F)c2nc1C [Compound F-1, (2S)-2-benzyl-N-(8-fluoro-2-methyl-3-quinolyl)-2,4-dimethyl-pent-4-enamide] |  |  | ≥ 80% | ≥ 80%
12 | C#CCC(C)(Cc1ccccc1)C(=O)Nc1cnc2c(F)cccc2c1 (stereo not shown) [Compound E-26, 2-benzyl-N-(8-fluoro-3-quinolyl)-2-methyl-pent-4-ynamide] |  | 189 to 191 °C | ≥ 80% | 
13 | CC(C)=CC(C)(Cc1ccccc1)C(=O)Nc1cnc2c(F)cccc2c1 (stereo not shown) [Compound E-48, 2-benzyl-N-(8-fluoro-3-quinolyl)-2,4-dimethyl-pent-3-enamide] |  | 167 to 169 °C |  | ≥ 80%
14 | Cc1nc2c(F)cccc2cc1NC(=O)C(Cc1ccccc1)CC(F)(F)F (stereo not shown) [Compound E-44, 2-benzyl-4,4,4-trifluoro-N-(8-fluoro-2-methyl-3-quinolyl)-butanamide] |  |  | ≥ 80% | ≥ 80%
15 | C/C=C\CC(C)(Cc1ccccc1)C(=O)Nc1cnc2c(F)cccc2c1 (stereo not shown) [Compound E-28, (Z)-2-benzyl-N-(8-fluoro-3-quinolyl)-2-methyl-hex-4-enamide] |  | 128 to 130 °C |  | ≥ 80%
16 | C#CCC(Cc1ccccc1)C(=O)Nc1cnc2c(F)cccc2c1C (stereo not shown) [Compound E-95] | ≥ 80% |  |  | 
17 | C=C(Cl)CC(C)(Cc1ccccc1)C(=O)Nc1cc2cccc(F)c2nc1C (stereo not shown) [Compound E-21, 2-benzyl-4-chloro-N-(8-fluoro-2-methyl-3-quinolyl)-2-methyl-pent-4-enamide] |  | 121 to 123 °C | ≥ 80% | ≥ 80%
18 | Cc1c(NC(=O)C(Cc2ccccc2)CC(F)(F)F)cnc2c(F)cccc12 (stereo not shown) [Compound E-45, 2-benzyl-4,4,4-trifluoro-N-(8-fluoro-4-methyl-3-quinolyl)-butanamide] |  | 165 to 167 °C | ≥ 80% | ≥ 80%
19 | CC(Cc1ccccc1)(CC(F)(F)F)C(=O)Nc1cnc2c(F)cccc2c1 (stereo not shown) [Compound E-80, 2-benzyl-4,4,4-trifluoro-N-(8-fluoro-3-quinolyl)-2-methyl-butanamide] |  |  | ≥ 80% | ≥ 80%

Row | Structure (SMILES) | inhibition of growth at 200 ppm [1] | melting point | pest or weed control at 200 ppm [2] | pest or weed control at 200 ppm (Fusarium culmorum)
20 | C=C(C)C[C@](C)(Cc1ccccc1)C(=O)Nc1cnc2c(F)cccc2c1C [Compound F-6, (2R)-2-benzyl-N-(8-fluoro-4-methyl-3-quinolyl)-2,4-dimethyl-pent-4-enamide] |  |  | ≥ 80% | ≥ 80%
21 | C=C(Cl)CC(C)(Cc1ccccc1)C(=O)Nc1cnc2c(F)cccc2c1 (stereo not shown) [Compound E-53, 2-benzyl-4-chloro-N-(8-fluoro-3-quinolyl)-2-methyl-pent-4-enamide] |  | 148 to 150 °C |  | ≥ 80%
22 | O=C(Nc1cnc2c(F)cccc2c1)C(Cc1ccccc1)CC(F)(F)F (stereo not shown) [Compound E-82, 2-benzyl-4,4,4-trifluoro-N-(8-fluoro-3-quinolyl)butanamide] |  | 161 to 164 °C |  | ≥ 80%
23 | CC(C)CC(C)(Cc1ccccc1)C(=O)Nc1cnc2c(F)cccc2c1 (stereo not shown) [Compound E-87, 2-benzyl-N-(8-fluoro-3-quinolyl)-2,4-dimethyl-pentanamide] |  | 140 to 142 °C |  | ≥ 80%
24 | CC#CCC(C)(Cc1ccccc1)C(=O)Nc1cnc2c(F)cccc2c1 (stereo not shown) [Compound E-30, 2-benzyl-N-(8-fluoro-3-quinolyl)-2-methyl-hex-4-ynamide] |  | 136 to 138 °C | ≥ 80% | 
25 | CC1(C[C@](C)(Cc2ccccc2)C(=O)Nc2cnc3c(F)cccc3c2)CC1 [Compound F-9, (2R)-2-benzyl-N-(8-fluoro-3-quinolyl)-2-methyl-3-(1-methylcyclopropyl)propanamide] |  |  | ≥ 80% | ≥ 80%
26 | CC(Cc1ccccc1)(CC(F)(F)F)C(=O)Nc1cnc2c(F)c(F)ccc2c1 (stereo not shown) [Compound E-60, 2-benzyl-N-(7,8-difluoro-3-quinolyl)-4,4,4-trifluoro-2-methyl-butanamide] |  | 183 to 186 °C |  | ≥ 80%
27 | CC(Cc1ccccc1)(CC(F)(F)F)C(=O)Nc1cnc2c(Cl)cccc2c1 (stereo not shown) [Compound E-51, 2-benzyl-N-(8-chloro-3-quinolyl)-4,4,4-trifluoro-2-methyl-butanamide] |  | 104 to 106 °C |  | ≥ 80%
28 | CC(Cc1ccccc1)(CC1(F)CC1)C(=O)Nc1cnc2c(F)cccc2c1 (stereo not shown) [Compound E-25, 2-benzyl-3-(1-fluorocyclopropyl)-N-(8-fluoro-3-quinolyl)-2-methyl-propanamide] |  | 162 to 164 °C |  | ≥ 80%
29 | C=C(C)C[C@](C)(Cc1ccccc1)C(=O)Nc1cc2cccc(F)c2nc1C [Compound F-2, (2R)-2-benzyl-N-(8-fluoro-2-methyl-3-quinolyl)-2,4-dimethyl-pent-4-enamide] |  |  | ≥ 80% | ≥ 80%
30 | Cc1nc2c(F)cccc2cc1NC(=O)[C@@](C)(Cc1ccccc1)CC(F)(F)F [Compound F-12, (2S)-2-benzyl-4,4,4-trifluoro-N-(8-fluoro-2-methyl-3-quinolyl)-2-methyl-butanamide] |  |  | ≥ 80% | ≥ 80%
31 | Cc1c(NC(=O)C(Cc2ccccc2)CC(C)C)cnc2c(F)cccc12 (stereo not shown) [Compound E-19, 2-benzyl-N-(8-fluoro-4-methyl-3-quinolyl)-4-methyl-pentanamide] |  |  | ≥ 80% | ≥ 80%
32 | C=C(Cl)CC(C)(Cc1ccccc1)C(=O)Nc1cnc2c(F)cccc2c1C (stereo not shown) [Compound E-20, 2-benzyl-4-chloro-N-(8-fluoro-4-methyl-3-quinolyl)-2-methyl-pent-4-enamide] |  | 124 to 126 °C | ≥ 80% | ≥ 80%
33 | C=C(C)CC(CC)(Cc1ccccc1)C(=O)Nc1cnc2c(F)cccc2c1 (stereo not shown) [Compound E-46, 2-benzyl-2-ethyl-N-(8-fluoro-3-quinolyl)-4-methyl-pent-4-enamide] |  |  | ≥ 80% | 
34 | Cc1nc2c(Cl)cccc2cc1NC(=O)C(C)(Cc1ccccc1)CC(C)C (stereo not shown) [Compound E-13, 2-benzyl-N-(8-chloro-2-methyl-3-quinolyl)-2,4-dimethyl-pentanamide] |  | 99 to 100 °C | ≥ 80% | 
35 | Cc1nc2c(Cl)cccc2cc1NC(=O)C(C)(Cc1ccccc1)CC(F)(F)F (stereo not shown) [Compound E-17, 2-benzyl-N-(8-chloro-2-methyl-3-quinolyl)-4,4,4-trifluoro-2-methyl-butanamide] |  | 47 to 50 °C | ≥ 80% | 
36 | Cc1nc2c(F)cccc2cc1NC(=O)C(C)(Cc1cccc(F)c1)CC(F)(F)F (stereo not shown) [Compound E-8, 4,4,4-trifluoro-N-(8-fluoro-2-methyl-3-quinolyl)-2-[(3-fluorophenyl)methyl]-2-methyl-butanamide] |  |  | ≥ 80% | ≥ 80%
37 | CC(C)C[C@](C)(Cc1ccccc1)C(=O)Nc1cnc2c(F)cccc2c1 [Compound F-19, (2R)-2-benzyl-N-(8-fluoro-3-quinolyl)-2,4-dimethyl-pentanamide] | ≥ 80% |  |  | ≥ 80%
